Here are results for 1 molecule from US10857113B2, “Bezafibrate for the treatment of cancer” (Cipla Limited, priority 2016, dated 2020).

Like-named read-outs stand apart in the source and are kept apart here.

In the experiment the test system is human tumor cell models for RCC. The experiment is described as follows: In vitro 3D clonogenic assay, all tumor models. In kind it is cell-based. The settings on record: 3D model, geometric mean over 10 tumor models. How it is done: Cell lines were routinely passaged one or twice weekly. All cells were grown at 37° C. in a humidified atmosphere with 5% CO2 in RPMI 1640 medium (Biochrom) supplemented with 10% (v/v) fetal calf serum and 0.1 mg/mL gentamicin. The percentage of viable cells was determined in a Neubauer-hemocytometer using trypan blue exclusion.
Tumor xenografts (patient-derived, as well as cell line-derived xenografts) were passaged as subcutaneous xenografts in NMRI nu/nu mice. At a tumor volume of 400-1,000 mm^3 tumor-bearing mice were sacrificed and tumors were collected under sterile conditions without delay according to the relevant Oncotest SOPs and the relevant animal welfare guidelines published by the FELASA and the GV-SOLAS. Tumors were mechanically disaggregated and subsequently incubated with an enzyme cocktail consisting of collagenase type IV (41 U/mL), DNase I (125 U/mL), hyaluronidase type III (100 U/mL), and dispase II (1.0 U/mL) in RPMI 1640 medium (Life Technologies) at 37° C. for 60-120 minutes. […] The percentage of viable cells was determined in a Neubauer-hemocytometer using trypan blue exclusion. […]
The clonogenic assay was carried out in a 96 well plate format using ultra low attachment plates. […] Cultures were incubated at 37° C. and 7.5% CO2 in a humidified atmosphere for 8 to 13 days and monitored closely for colony growth using an inverted microscope. […]

With `CC(C)(Oc1ccc(CCNC(=O)c2ccc(Cl)cc2)cc1)C(=O)O` [Bezafibrate], the IC50 by setting is: (read-out: Geometric mean absolute IC50) 945 µM; (read-out: Geometric mean relative IC50) 985 µM.

For orientation: IC50 means the concentration that inhibits the measured activity by half.
